Active and inactive are the calls of the source. The rule behind the calls is not given here.
Columns and labels:
Cyperus iria [1] = experiment: Pre-emergence herbicidal activity against Cyperus iria assessed as growth inhibition at 25 g a.i/10 a; type: functional, organism-based
[2] = Pre-emergence phytotoxicity against Zea mays (maize) assessed as mortality at 1.6 g a.i/10 a; type: organism-based; settings: in vivo, 1.6 g a.i/10 a, read-out: mortality
Xanthium strumarium [3] = experiment: Pre-emergence herbicidal activity against Xanthium strumarium (cocklebur) assessed as mortality at 6.3 g a.i/10 a; type: functional; settings: Xanthium strumarium, pre-emergence
Persicaria nodosa [4] = experiment: Post-emergence herbicidal activity against Persicaria nodosa assessed as growth inhibition at 25 g a.i/10 a applied 11 days after germination as foliar spray; type: functional, organism-based
Digitaria sanguinalis [5] = experiment: Pre-emergence herbicidal activity against Digitaria sanguinalis (hairy crabgrass) assessed as growth inhibition at 25 g a.i/10 a; type: functional, organism-based
Echinochloa crus-galli [6] = experiment: Pre-emergence herbicidal activity against Echinochloa crus-galli (barnyard grass) assessed as mortality at 6.3 g a.i/10 a; type: functional; settings: Echinochloa crus-galli, pre-emergence
Cyperus iria [7] = experiment: Post-emergence herbicidal activity against Cyperus iria assessed as growth inhibition at 25 g a.i/10 a applied 11 days after germination as foliar spray; type: functional, organism-based
Persicaria nodosa [8] = experiment: Pre-emergence herbicidal activity against Persicaria nodosa assessed as growth inhibition at 25 g a.i/10 a; type: functional, organism-based
Gossypium hirsutum [9] = experiment: Post-emergence phytotoxicity against Gossypium hirsutum (cotton) assessed as mortality at 1.6 g a.i/10 a applied 11 days after germination as foliar spray; type: organism-based; settings: in vivo, other, 264 h
Abutilon theophrasti [10] = experiment: Pre-emergence herbicidal activity against Abutilon theophrasti (velvetleaf) assessed as mortality at 1.6 g a.i/10 a; type: functional; settings: Abutilon theophrasti, pre-emergence
Gossypium hirsutum [11] = experiment: Pre-emergence phytotoxicity against Gossypium hirsutum (cotton) assessed as mortality at 6.3 g a.i/10 a; type: organism-based; settings: in vivo, other
Gossypium hirsutum [12] = experiment: Post-emergence phytotoxicity against Gossypium hirsutum (cotton) assessed as mortality at 6.3 g a.i/10 a applied 11 days after germination as foliar spray; type: organism-based; settings: in vivo, other, 264 h
Chenopodium album [13] = experiment: Pre-emergence herbicidal activity against Chenopodium album assessed as growth inhibition at 25 g a.i/10 a; type: functional, organism-based
Zea mays [14] = experiment: Post-emergence phytotoxicity against Zea mays (maize) assessed as mortality at 6.3 g a.i/10 a applied 11 days after germination as foliar spray; type: organism-based; settings: in vivo, other, 264 h
Glycine max [15] = experiment: Pre-emergence phytotoxicity against Glycine max (soybean) assessed as mortality at 6.3 g a.i/10 a; type: organism-based; settings: in vivo, other
Xanthium strumarium [16] = experiment: Pre-emergence herbicidal activity against Xanthium strumarium (cocklebur) assessed as mortality at 1.6 g a.i/10 a; type: functional; settings: Xanthium strumarium, pre-emergence
Glycine max [17] = experiment: Pre-emergence phytotoxicity against Glycine max (soybean) assessed as mortality at 1.6 g a.i/10 a; type: organism-based; settings: in vivo, other
Zea mays [18] = experiment: Post-emergence phytotoxicity against Zea mays (maize) assessed as mortality at 1.6 g a.i/10 a applied 11 days after germination as foliar spray; type: organism-based; settings: in vivo, other, 264 h
Glycine max [19] = experiment: Post-emergence phytotoxicity against Glycine max (soybean) assessed as mortality at 6.3 g a.i/10 a applied 11 days after germination as foliar spray; type: organism-based; settings: in vivo, other, 264 h
Amaranthus retroflexus [20] = experiment: Pre-emergence herbicidal activity against Amaranthus retroflexus assessed as growth inhibition at 25 g a.i/10 a; type: functional, organism-based
Echinochloa crus-galli [21] = experiment: Pre-emergence herbicidal activity against Echinochloa crus-galli (barnyard grass) assessed as mortality at 1.6 g a.i/10 a; type: functional; settings: Echinochloa crus-galli, pre-emergence
Abutilon theophrasti [22] = experiment: Pre-emergence herbicidal activity against Abutilon theophrasti (velvetleaf) assessed as mortality at 6.3 g a.i/10 a; type: functional; settings: Abutilon theophrasti, pre-emergence
Ipomoea lacunosa [23] = experiment: Pre-emergence herbicidal activity against Ipomoea lacunosa assessed as mortality at 6.3 g a.i/10 a; type: functional; settings: Ipomoea lacunosa, pre-emergence
Glycine max [24] = experiment: Post-emergence phytotoxicity against Glycine max (soybean) assessed as mortality at 1.6 g a.i/10 a applied 11 days after germination as foliar spray; type: organism-based; settings: in vivo, other, 264 h
Chenopodium album [25] = experiment: Post-emergence herbicidal activity against Chenopodium album assessed as growth inhibition at 25 g a.i/10 a applied 11 days after germination as foliar spray; type: functional, organism-based
Echinochloa crus-galli [26] = experiment: Post-emergence herbicidal activity against Echinochloa crus-galli (barnyard grass) assessed as growth inhibition at 25 g a.i/10 a applied 11 days after germination as foliar spray; type: functional, organism-based
Digitaria sanguinalis [27] = experiment: Post-emergence herbicidal activity against Digitaria sanguinalis (hairy crabgrass) assessed as growth inhibition at 25 g a.i/10 a applied 11 days after germination as foliar spray; type: functional, organism-based
Xanthium strumarium [28] = experiment: Post-emergence herbicidal activity against Xanthium strumarium (cocklebur) assessed as mortality at 6.3 g a.i/10 a applied 11 days after germination as foliar spray; type: functional; settings: 264 h
Echinochloa crus-galli [29] = experiment: Pre-emergence herbicidal activity against Echinochloa crus-galli (barnyard grass) assessed as growth inhibition at 25 g a.i/10 a; type: functional, organism-based
Xanthium strumarium [30] = experiment: Post-emergence herbicidal activity against Xanthium strumarium (cocklebur) assessed as mortality at 1.6 g a.i/10 a applied 11 days after germination as foliar spray; type: functional; settings: 264 h
Ipomoea lacunosa [31] = experiment: Pre-emergence herbicidal activity against Ipomoea lacunosa assessed as mortality at 1.6 g a.i/10 a; type: functional; settings: Ipomoea lacunosa, pre-emergence
Amaranthus retroflexus [32] = experiment: Post-emergence herbicidal activity against Amaranthus retroflexus assessed as growth inhibition at 25 g a.i/10 a applied 11 days after germination as foliar spray; type: functional, organism-based

COC(=O)c1cccc(Oc2nc(OC)cc(OC)n2)c1C(=O)O
growth inhibition (GI) (Cyperus iria [1]): Active | mortality [2]: < 5% | mortality at 63 g/ha (Xanthium strumarium [3]): < 5% | growth inhibition (GI) (Persicaria nodosa [4]): Active | growth inhibition (GI) (Digitaria sanguinalis [5]): Active | mortality at 63 g/ha (Echinochloa crus-galli [6]): < 5% | growth inhibition (GI) (Cyperus iria [7]): Active | growth inhibition (GI) (Persicaria nodosa [8]): Active | Activity (Gossypium hirsutum [9]): Toxic | mortality at 16 g/ha (Abutilon theophrasti [10]): < 5% | Activity (Gossypium hirsutum [11]): Non-toxic | Activity (Gossypium hirsutum [12]): Toxic | growth inhibition (GI) (Chenopodium album [13]): Active | Activity (Zea mays [14]): Toxic | Activity (Glycine max [15]): Non-toxic | mortality at 16 g/ha (Xanthium strumarium [16]): < 5% | Activity (Glycine max [17]): Non-toxic | Activity (Zea mays [18]): Toxic | Activity (Glycine max [19]): Toxic | growth inhibition (GI) (Amaranthus retroflexus [20]): Active | mortality at 16 g/ha (Echinochloa crus-galli [21]): < 5% | mortality at 63 g/ha (Abutilon theophrasti [22]): < 5% | mortality at 63 g/ha (Ipomoea lacunosa [23]): < 5% | Activity (Glycine max [24]): Toxic | growth inhibition (GI) (Chenopodium album [25]): Active | growth inhibition (GI) (Echinochloa crus-galli [26]): Active | growth inhibition (GI) (Digitaria sanguinalis [27]): Active | mortality at 63 g/ha (Xanthium strumarium [28]): < 5% | growth inhibition (GI) (Echinochloa crus-galli [29]): inactive | mortality at 16 g/ha (Xanthium strumarium [30]): < 5% | mortality at 16 g/ha (Ipomoea lacunosa [31]): < 5% | growth inhibition (GI) (Amaranthus retroflexus [32]): Active

From ChEMBL document CHEMBL3046894, “Synthesis and Herbicidal Activity of Pyrimidinyl Salicylic and Thiosalicylic Acids” (J Pestic Sci, 1996)
